For twelve compounds, IC50 results are on record in patent US12172995B2, “Substituted indole and indazole compounds” (BRISTOL-MYERS SQUIBB COMPANY, priority 2018, dated 2024).

What all share (type): cell-based
Test [1] deals with T1, human TLR7 (Homo sapiens, UniProt Q9NYK1).
T1 construct: host or cells: HEK-Blue cells
T1 sequence (Q9NYK1 27-1049): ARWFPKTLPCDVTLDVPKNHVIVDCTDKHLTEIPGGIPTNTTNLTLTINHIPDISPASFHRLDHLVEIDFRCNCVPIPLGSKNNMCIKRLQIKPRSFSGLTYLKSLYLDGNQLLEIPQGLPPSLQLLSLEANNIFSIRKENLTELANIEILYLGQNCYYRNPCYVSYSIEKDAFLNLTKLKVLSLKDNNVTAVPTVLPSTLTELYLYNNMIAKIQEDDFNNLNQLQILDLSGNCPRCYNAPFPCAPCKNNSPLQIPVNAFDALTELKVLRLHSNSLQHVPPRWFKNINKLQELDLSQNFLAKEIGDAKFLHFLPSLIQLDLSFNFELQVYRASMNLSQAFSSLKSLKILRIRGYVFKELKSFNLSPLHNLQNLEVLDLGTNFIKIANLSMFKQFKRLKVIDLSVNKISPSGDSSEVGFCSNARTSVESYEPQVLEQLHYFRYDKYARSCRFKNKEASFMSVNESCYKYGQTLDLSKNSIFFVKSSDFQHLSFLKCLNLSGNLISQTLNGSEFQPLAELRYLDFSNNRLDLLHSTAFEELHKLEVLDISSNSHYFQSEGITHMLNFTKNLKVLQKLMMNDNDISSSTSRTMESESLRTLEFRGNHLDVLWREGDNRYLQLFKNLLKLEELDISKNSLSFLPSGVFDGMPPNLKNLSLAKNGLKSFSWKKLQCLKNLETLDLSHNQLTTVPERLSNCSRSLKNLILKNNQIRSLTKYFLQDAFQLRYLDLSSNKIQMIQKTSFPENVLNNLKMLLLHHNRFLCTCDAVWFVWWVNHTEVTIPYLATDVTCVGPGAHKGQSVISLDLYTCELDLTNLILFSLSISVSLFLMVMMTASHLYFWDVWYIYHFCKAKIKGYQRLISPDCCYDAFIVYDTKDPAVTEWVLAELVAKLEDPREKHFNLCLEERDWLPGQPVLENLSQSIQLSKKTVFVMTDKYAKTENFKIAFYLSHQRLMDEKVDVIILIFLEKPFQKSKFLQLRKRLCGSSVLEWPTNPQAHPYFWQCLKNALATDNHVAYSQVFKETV
In words: TLR7 inhibition reporter assay (HEK-Blue SEAP). As to conditions: HEK-Blue cells overexpressing human TLR7, stimulated with gardiquimod 7.5 μM, 22 hour incubation. In short, it runs like this: (§1)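 Percent inhibition reflects SEAP reduction after 22 h at 37° C, relative to agonist-plus-DMSO and known-inhibitor controls. Compounds (0.05 nM to 50 μM) were added 30 min before agonist: TLR9 cells received ODN2006 5 nM, TLR8 cells R848 15.9 μM, TLR7 cells gardiquimod 7.5 μM; human receptor-expressing HEK-Blue reporter lines.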
On the technique in general: A reporter such as luciferase makes a cellular process visible.

Test [2] addresses T2, human TLR8 (Homo sapiens, UniProt Q9NR97).
T2 construct: host or cells: HEK-Blue cells
T2 sequence (Q9NR97 27-1041): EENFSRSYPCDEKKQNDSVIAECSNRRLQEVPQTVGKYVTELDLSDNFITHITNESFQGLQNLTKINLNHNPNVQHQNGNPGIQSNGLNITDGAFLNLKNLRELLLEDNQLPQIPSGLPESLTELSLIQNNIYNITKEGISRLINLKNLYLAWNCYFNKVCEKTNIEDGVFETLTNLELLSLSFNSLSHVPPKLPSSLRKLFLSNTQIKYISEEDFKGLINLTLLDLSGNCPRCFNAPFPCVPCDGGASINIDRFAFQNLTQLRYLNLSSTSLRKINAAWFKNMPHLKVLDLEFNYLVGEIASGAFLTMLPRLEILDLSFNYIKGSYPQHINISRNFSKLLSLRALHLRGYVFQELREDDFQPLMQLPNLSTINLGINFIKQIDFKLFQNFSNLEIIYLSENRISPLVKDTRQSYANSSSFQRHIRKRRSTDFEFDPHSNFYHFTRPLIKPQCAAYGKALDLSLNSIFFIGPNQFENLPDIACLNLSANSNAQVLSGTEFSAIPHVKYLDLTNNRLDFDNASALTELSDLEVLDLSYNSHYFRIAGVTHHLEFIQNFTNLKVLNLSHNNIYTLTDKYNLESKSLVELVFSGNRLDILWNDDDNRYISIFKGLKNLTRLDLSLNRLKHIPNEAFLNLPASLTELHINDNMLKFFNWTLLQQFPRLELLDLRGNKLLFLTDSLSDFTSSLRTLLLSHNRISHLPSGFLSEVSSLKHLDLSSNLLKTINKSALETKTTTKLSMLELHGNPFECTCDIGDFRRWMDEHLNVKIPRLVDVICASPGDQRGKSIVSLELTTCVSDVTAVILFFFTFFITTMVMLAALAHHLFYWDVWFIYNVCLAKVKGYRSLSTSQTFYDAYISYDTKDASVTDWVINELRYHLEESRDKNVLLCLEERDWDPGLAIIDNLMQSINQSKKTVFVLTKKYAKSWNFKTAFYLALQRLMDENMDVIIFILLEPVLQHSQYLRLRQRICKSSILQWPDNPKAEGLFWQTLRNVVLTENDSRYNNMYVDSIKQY
In words: TLR8 inhibition reporter assay (HEK-Blue SEAP). As to conditions: HEK-Blue cells overexpressing human TLR8, stimulated with R848 15.9 μM, 22 hour incubation. Put shortly: as §1

For test [3], the target named is T3, human TLR9 (Homo sapiens, UniProt Q9NR96).
T3 construct: host or cells: HEK-Blue cells
T3 sequence (Q9NR96 26-1032): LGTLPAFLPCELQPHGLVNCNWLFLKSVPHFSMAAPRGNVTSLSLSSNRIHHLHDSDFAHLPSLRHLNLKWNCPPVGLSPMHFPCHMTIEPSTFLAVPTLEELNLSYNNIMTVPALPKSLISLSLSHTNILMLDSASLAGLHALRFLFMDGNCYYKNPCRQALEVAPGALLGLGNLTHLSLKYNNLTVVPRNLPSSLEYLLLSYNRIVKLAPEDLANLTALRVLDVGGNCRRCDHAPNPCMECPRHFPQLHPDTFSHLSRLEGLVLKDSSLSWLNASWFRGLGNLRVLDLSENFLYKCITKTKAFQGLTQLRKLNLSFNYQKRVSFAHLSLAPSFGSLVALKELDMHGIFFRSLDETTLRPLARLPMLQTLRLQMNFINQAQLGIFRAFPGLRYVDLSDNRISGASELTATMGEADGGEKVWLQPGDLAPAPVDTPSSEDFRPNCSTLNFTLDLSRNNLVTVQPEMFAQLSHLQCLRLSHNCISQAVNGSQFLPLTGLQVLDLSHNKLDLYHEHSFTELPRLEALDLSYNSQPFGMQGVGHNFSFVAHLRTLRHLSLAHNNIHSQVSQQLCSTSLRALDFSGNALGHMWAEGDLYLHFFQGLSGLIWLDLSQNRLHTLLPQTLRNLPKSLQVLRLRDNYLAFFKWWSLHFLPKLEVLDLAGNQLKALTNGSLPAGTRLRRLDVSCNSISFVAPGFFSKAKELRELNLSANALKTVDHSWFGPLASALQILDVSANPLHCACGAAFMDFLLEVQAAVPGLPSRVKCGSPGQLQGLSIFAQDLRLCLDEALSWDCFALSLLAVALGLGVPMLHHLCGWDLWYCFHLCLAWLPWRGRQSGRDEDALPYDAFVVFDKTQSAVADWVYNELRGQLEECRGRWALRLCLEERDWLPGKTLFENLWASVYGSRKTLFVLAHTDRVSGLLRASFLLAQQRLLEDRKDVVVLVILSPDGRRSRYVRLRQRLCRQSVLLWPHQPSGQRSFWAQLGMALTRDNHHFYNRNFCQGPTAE
In words: TLR9 inhibition reporter assay (HEK-Blue SEAP). Particulars: HEK-Blue cells overexpressing human TLR9, stimulated with ODN2006 5 nM, 22 hour incubation. In short, it runs like this: as §1

Some results are limits rather than exact numbers.

The term IC50 denotes the concentration needed to halve the response being measured. With `CCc1cc(-c2cc(C)c3ncnn3c2)cc2[nH]nc(C3CCN(C(=O)CN(C)C)CC3)c12` [Example 110, 2-(dimethylamino)-1-(4-(4-ethyl-6-(8-methyl-[1,2,4]triazolo[1,5-a]pyridin-6-yl)-1H-indazol-3-yl)piperidin-1-yl)ethan-1-one], the IC50 was 2.4 nM in test [1], 1.8 nM in test [2] and 3.86 µM in test [3].
Regarding `Cc1cc(-c2cc3[nH]nc(C4CCN(C(=O)CN(C)C)CC4)c3cc2C(C)C)cn2ncnc12` [Example 111, 2-(dimethylamino)-1-(4-(5-isopropyl-6-(8-methyl-[1,2,4]triazolo[1,5-a]pyridin-6-yl)-1H-indazol-3-yl)piperidin-1-yl)ethan-1-one], the IC50 is 1.8 nM in test [1], 0.5 nM in test [2] and 18.6 µM in test [3].
`Cc1cc(-c2cc3[nH]nc(C4CCN(CC(=O)N(C)C)CC4)c3cc2C(C)C)cn2ncnc12` [Example 112, 2-(4-(5-isopropyl-6-(8-methyl-[1,2,4]triazolo[1,5-a]pyridin-6-yl)-1H-indazol-3-yl)piperidin-1-yl)-N,N-dimethylacetamide]: the results for the half-maximal inhibitory concentration (IC50) in test [1], in test [2] and in test [3] were 1.5 nM, 0.3 nM and 20.9 µM, respectively.
As to `Cc1cc(-c2cc3[nH]nc(C4CCN(CC(C)(C)O)CC4)c3cc2C(C)C)cn2ncnc12` [Example 113, 1-(4-(5-isopropyl-6-(8-methyl-[1,2,4]triazolo[1,5-a]pyridin-6-yl)-1H-indazol-3-yl)piperidin-1-yl)-2-methylpropan-2-ol], the IC50 was 1.5 nM in test [1], 0.1 nM in test [2] and 20.3 µM in test [3].
Turning to `Cc1cc(-c2cc3[nH]nc(C4CCC(N(C)C)CC4)c3cc2C(C)C)cn2ncnc12` (stereo not drawn) [Example 115, 4-(5-isopropyl-6-(8-methyl-[1,2,4]triazolo[1,5-a]pyridin-6-yl)-1H-indazol-3-yl)-N,N-dimethylcyclohexan-1-amine], the values for the IC50 in test [1], in test [2] and in test [3] were 0.6 nM, 0.1 nM and 6.7 µM, respectively.
With `Cc1cc(-c2cc3[nH]nc(C4CCN(C5CCOCC5)CC4)c3cc2C(C)C)cn2ncnc12` [Example 116, 6-(5-isopropyl-3-(1-(tetrahydro-2H-pyran-4-yl)piperidin-4-yl)-1H-indazol-6-yl)-8-methyl-[1,2,4]triazolo[1,5-a]pyridine], the 50% inhibitory concentration (IC50) turned out to be 0.6 nM in test [1], 0.1 nM in test [2] and 6.55 µM in test [3].
The matching figures for `COc1cc(-c2cc3[nH]nc(C4CCN(C(=O)CN(C)C)CC4)c3cc2C(C)C)cn2ncnc12` [Example 117, 2-(dimethylamino)-1-(4-(5-isopropyl-6-(8-methoxy-[1,2,4]triazolo[1,5-a]pyridin-6-yl)-1H-indazol-3-yl)piperidin-1-yl)ethan-1-one]: 3.4 nM, 0.5 nM and 11.2 µM.
Turning to `Cc1cc(-c2cc3[nH]nc(C4CCN(C5COC5)CC4)c3cc2C(C)C)cn2ncnc12` [Example 120, 6-(5-isopropyl-3-(1-(oxetan-3-yl)piperidin-4-yl)-1H-indazol-6-yl)-8-methyl-[1,2,4]triazolo[1,5-a]pyridine], the IC50 is 7.4 nM in test [1], 1.1 nM in test [2] and at least 50 µM in test [3].
The like results for `Cc1cc(-c2cc3[nH]nc(C4CCN(C(=O)CCN(C)C)CC4)c3cc2C(C)C)cn2ncnc12` [Example 122, 3-(dimethylamino)-1-(4-(5-isopropyl-6-(8-methyl-[1,2,4]triazolo[1,5-a]pyridin-6-yl)-1H-indazol-3-yl)piperidin-1-yl)propan-1-one] were, in that order, 3.2 nM, 0.8 nM and 13.7 µM.
The matching figures for `Cc1cc(-c2cc3[nH]nc(C4CCN(C(C)C)CC4)c3cc2C(C)C)cn2ncnc12` [Example 123, 6-(5-isopropyl-3-(1-isopropylpiperidin-4-yl)-1H-indazol-6-yl)-8-methyl-[1,2,4] triazolo[1,5-a]pyridine]: 0.5 nM, 0.1 nM and 5.66 µM.
As for `Cc1cc(-c2cc3[nH]nc(C4CCC(NCCS(C)(=O)=O)CC4)c3cc2C(C)C)cn2ncnc12` (stereo not drawn) [Example 126, 4-(5-isopropyl-6-(8-methyl-[1,2,4]triazolo[1,5-a]pyridin-6-yl)-1H-indazol-3-yl)-N-(2-(methylsulfonyl)ethyl) cyclohexan-1-amine], the IC50 in test [1] came to 1.1 nM; in test [2], 0.1 nM; in test [3] it was 10.8 µM.
On to `Cc1cc(-c2cc3[nH]nc(C4CCC(NCCS(C)(=O)=O)CC4)c3cc2C(C)C)cn2ncnc12` (stereo not drawn) [Example 127, 4-(5-isopropyl-6-(8-methyl-[1,2,4]triazolo[1,5-a]pyridin-6-yl)-1H-indazol-3-yl)-N-(2-(methylsulfonyl)ethyl) cyclohexan-1-amine], for which the IC50 turned out to be 1.9 nM in test [1], 0.1 nM in test [2] and 8.47 µM in test [3].
